From US20190016703A1, “BIFUNCTIONAL COMPOUNDS FOR HER3 DEGRADATION AND METHODS OF USE” (Dana-Farber Cancer Institute, Inc., priority 2015, published 2019)

What was measured:
Her3 [1] = biological target: T1, Her3 (Homo sapiens, UniProt P21860); test: Her3 protein degradation by Western blot (immunoblotting); format: cell-based; parameters: endogenous in cells; host or cells: PC9-GR4; Ovacar 8; key: +: Her3 protein was degraded; −: Her3 protein was not degraded; conditions: PC9-GR4 or Ovacar 8 cell lines, 2 μM, 4 hours and 8 hours
Protocol: Cells are seeded at the desired density the day before treatment starts with bifunctional compounds of the application at various concentration. After 4 to 12 hrs, cells are washed with buffer and lysed. The lysates are centrifuged and the supernatant is collected. Protein concentrations are measured using a protein assay kit, such as the BCA protein assay kit, Pierce, catalog number 23225) and normalized. Samples are run on a SDS-PAGE gel, and transferred to a PVDF membrane. The PVDF membrane is probed with the appropriate antibody.
Her3 protein degradation was assessed via Western blots after treatment of PC9-GR4 cell lines or Ovacar 8 cell lines with 2 μM of representative compounds for 4 hours and 8 hours.
Cells were seeded at a density of 4×10̂5 per 6 cm plate the day before treatment started with representative compounds of the application at the indicated concentration. After 4 to 12 hrs, cells were washed with phosphate-buffered saline. Lysis buffer included 50 mM Tris-HCl, […], 150 mM NaCl, 1% NP-40, and 5 mM EDTA, pH 7.4+/−0.2, Roche PhosSTOP phosphatase inhibitor cocktail tablets and Roche Complete Protease inhibitor cocktail tablets. Cell lysis was accomplished by addition of lysis buffer for 5-10 min on ice. Lysates were centrifuged in a microcentrifuge at 14,000 r.p.m. for 15 min at 4° C., and the supernatant was collected. Protein concentrations were measured using BCA protein assay kit (Pierce, catalog number 23225) and normalized. Samples were run on a 4%-12% SDS-PAGE gel at 120 V. After transfer, the PVDF membrane was probed with anti-Her3 antibody, Santa Cruz, catalog number sc-285 at 1:1000 dilution.

Her3 [2] = biological target: T1, Her3; test: LanthaScreen Eu kinase binding assay; parameters: purchased Life Technologies; conditions: read-out: Binding affinities (IC50)
Protocol: Lantha screening is performed by following the method reported in Nature Chemical Biology, 10, 1006-1012 (2014).
Binding affinities (IC 50) of representative compounds were measured by the Life Technologies LanthaScreen Eu kinase binding assay, which was previously reported (Xie T. et al., Nat. Chew. Biol. 2014, 10, 1006-1012).
Lantha screening was performed by following the method reported in Nature Chemical Biology, 10, 1006-1012 (2014).

826-GR6 = test: Anti-proliferation assay (MTS cell viability); format: cell-based; conditions: 72 h, 826-GR6 cells, 3 d incubation, read-out: Cell lines (EC50, μM) 826-GR6
Protocol: Cells are seeded and incubated for 3 d after bifunctional compounds of the application are added. Cell viability is measured via MTS Assay. This assay uses a colorimetric method to determine the number of viable cells based on the bioreduction of MTS by cells to a formazan product that is soluble in cell culture medium and can be detected spectrophotometrically. In a typical experiment, the supernatant is removed and replaced by 100 μl of RPMI media supplemented with MTS reagent and PMS. The plates are measured with Perkin Elmer EnVision after reaching an optical density (OD) of 1.0-2.0 at a wavelength of 490 nm. The cell numbers are normalized compared to DMSO control, and the EC50 values are calculated using GraphPad Prism.
Five cell lines, PC9-GR4, 826-GR6, Ovacar 8, A549, and Ovacar 5 were grown and treated with representative compounds. Viability of the cells after the treatment was assessed by MTS assay.
The anti-proliferation assay was carried out using 96-well clear bottom plates. […] Cell viability was measured via MTS Assay. This assay uses a colorimetric method to determine the number of viable cells based on the bioreduction of MTS by cells to a formazan product that is soluble in cell culture medium and can be detected spectrophotometrically. […] The plates were measured with Perkin Elmer EnVision after reaching an optical density (OD) of 1.0-2.0 at a wavelength of 490 nm. […]

T1 sequence (P21860 20-1342): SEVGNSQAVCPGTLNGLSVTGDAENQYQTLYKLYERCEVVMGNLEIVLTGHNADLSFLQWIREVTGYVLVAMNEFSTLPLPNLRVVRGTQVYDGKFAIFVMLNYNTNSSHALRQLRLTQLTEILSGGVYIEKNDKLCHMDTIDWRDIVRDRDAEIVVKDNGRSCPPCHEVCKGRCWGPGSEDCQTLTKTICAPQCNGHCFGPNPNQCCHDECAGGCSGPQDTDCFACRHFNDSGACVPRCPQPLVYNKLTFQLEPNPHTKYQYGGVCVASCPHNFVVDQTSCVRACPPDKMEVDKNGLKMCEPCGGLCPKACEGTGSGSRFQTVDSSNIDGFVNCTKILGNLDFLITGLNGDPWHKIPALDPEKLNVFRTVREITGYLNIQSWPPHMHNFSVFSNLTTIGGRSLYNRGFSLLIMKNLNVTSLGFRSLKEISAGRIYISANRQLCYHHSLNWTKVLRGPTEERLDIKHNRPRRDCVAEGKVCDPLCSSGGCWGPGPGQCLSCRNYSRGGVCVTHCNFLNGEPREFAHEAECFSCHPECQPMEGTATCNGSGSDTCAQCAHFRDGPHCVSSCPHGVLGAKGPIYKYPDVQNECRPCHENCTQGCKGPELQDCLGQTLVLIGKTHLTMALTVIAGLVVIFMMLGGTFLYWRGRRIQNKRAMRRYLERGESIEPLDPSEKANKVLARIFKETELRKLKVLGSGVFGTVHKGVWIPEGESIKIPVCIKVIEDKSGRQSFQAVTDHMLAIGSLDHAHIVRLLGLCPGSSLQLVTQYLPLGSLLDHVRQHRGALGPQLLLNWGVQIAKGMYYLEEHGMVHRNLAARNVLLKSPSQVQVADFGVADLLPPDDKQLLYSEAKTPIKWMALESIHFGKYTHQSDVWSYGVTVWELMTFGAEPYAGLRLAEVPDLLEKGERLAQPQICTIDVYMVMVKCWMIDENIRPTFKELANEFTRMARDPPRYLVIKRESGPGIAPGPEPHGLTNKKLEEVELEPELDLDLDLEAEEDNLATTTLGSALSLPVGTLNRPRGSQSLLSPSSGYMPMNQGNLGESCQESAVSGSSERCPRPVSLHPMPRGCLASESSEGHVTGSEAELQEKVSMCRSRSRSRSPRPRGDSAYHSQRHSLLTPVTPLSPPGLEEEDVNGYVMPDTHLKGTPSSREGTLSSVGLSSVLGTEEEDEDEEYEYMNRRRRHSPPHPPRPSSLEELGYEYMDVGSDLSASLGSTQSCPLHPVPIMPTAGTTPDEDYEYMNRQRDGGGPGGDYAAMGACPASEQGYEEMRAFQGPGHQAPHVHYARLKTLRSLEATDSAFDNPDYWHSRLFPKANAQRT

SMILES | Her3 degradation (Her3 [1]) | IC50 (Her3 [2]) | EC50 (826-GR6)
COc1cc(Nc2c(C#N)cnc3cc(OCCCN4CCN(CC(=O)NCCOCCOCCOCCNC(=O)COc5cccc6c5C(=O)N(C5CCC(=O)NC5=O)C6=O)CC4)c(OC)cc23)c(Cl)cc1Cl (stereo not drawn) [Compound CY1] | − | < 10 nM | 
COc1cc(Nc2c(C#N)cnc3cc(OCCCN4CCN(C(=O)CCCNC(=O)COc5cccc6c5C(=O)N(C5CCC(=O)NC5=O)C6=O)CC4)c(OC)cc23)c(Cl)cc1Cl (stereo not drawn) [Compound CY2] | − | < 10 nM | 
CCOc1cc2ncc(C#N)c(Nc3ccc(OCc4ccccn4)c(Cl)c3)c2cc1NC(=O)CCOCCOCCNc1cccc2c1C(=O)N(C1CCC(=O)NC1=O)C2=O (stereo not drawn) [Compound CY3] | − |  | 
CCOc1cc2ncc(C#N)c(Nc3ccc(OCc4ccccn4)c(Cl)c3)c2cc1NC(=O)CCOCCOCCOCCNc1cccc2c1C(=O)N(C1CCC(=O)NC1=O)C2=O (stereo not drawn) [Compound CY4] | − |  | 
CCOc1cc2ncc(C#N)c(Nc3ccc(OCc4ccccn4)c(Cl)c3)c2cc1NC(=O)CCOCCOCCOCCOCCOCCNc1cccc2c1C(=O)N(C1CCC(=O)NC1=O)C2=O (stereo not drawn) [Compound CY5] | − |  | 
COc1cc(Nc2c(C#N)cnc3cc(OCCCN4CCN(CCOCCOCCNc5cccc6c5C(=O)N(C5CCC(=O)NC5=O)C6=O)CC4)c(OC)cc23)c(Cl)cc1Cl (stereo not drawn) [Compound CY6] | − | < 10 nM | 5 to 15 µM
COc1cc(Nc2c(C#N)cnc3cc(OCCCN4CCN(CCOCCOCCOCCNc5cccc6c5C(=O)N(C5CCC(=O)NC5=O)C6=O)CC4)c(OC)cc23)c(Cl)cc1Cl (stereo not drawn) [Compound CY7] | − | < 10 nM | 5 to 15 µM
COc1cc(Nc2c(C#N)cnc3cc(OCCCOCCOCCOCCNc4cccc5c4C(=O)N(C4CCC(=O)NC4=O)C5=O)c(OC)cc23)c(Cl)cc1Cl (stereo not drawn) [Compound CY8] | − |  | 
COc1cc(Nc2c(C#N)cnc3cc(OCCCOCCOCCOCCOCCNc4cccc5c4C(=O)N(C4CCC(=O)NC4=O)C5=O)c(OC)cc23)c(Cl)cc1Cl (stereo not drawn) [Compound CY9] | + | 10 to 100 nM | 
COc1cc2ncnc(Nc3cccc(Cl)c3F)c2cc1OC1CCN(CC(=O)NCCOCCOCCNc2cccc3c2C(=O)N(C2CCC(=O)NC2=O)C3=O)CC1 (stereo not drawn) [Compound CY10] | − |  | 
COc1cc2ncnc(Nc3cccc(Cl)c3F)c2cc1OC1CCN(CC(=O)NCCOCCOCCOCCNc2cccc3c2C(=O)N(C2CCC(=O)NC2=O)C3=O)CC1 (stereo not drawn) [Compound CY11] | − |  | 
